Measurements published in paper PMC7377239, “Cardiovascular Effects of Polychlorinated Biphenyls and Their Major Metabolites” (Environmental Health Perspectives, 2020).
Where two headings read alike, the source gives them in different places.

Columns and labels:
[1] = system: iCell cardiomyocytes (human iPSC-derived cardiomyocytes); experiment: High-content imaging of cytotoxicity and mitochondrial integrity in iPSC-CMs; format: cell-based; details: Homo sapiens; for viability at 0.01 µM / activity at 0.01 µM / viability at 0.1 µM / activity at 0.1 µM / viability at 1 µM / activity at 1 µM / viability at 10 µM / activity at 10 µM / viability at 100 µM / activity at 100 µM: Cardiomyocyte, 0.00 µM = 100.00; for viability at 0.1 µM / activity at 0.1 µM: 0.10 µM; for minimal effective concentration: iPSC-CM
How it was run: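 Human iPSC-derived cardiomyocytes were seeded on gelatin-coated 384-well plates at 5,000 cells per well and maintained for 12 d. Test chemicals were added as 10μL of 5× solutions to final concentrations of 0.01 to 100μM. Cells were stained with Hoechst 33342 and MitoTracker™ Orange, fixed in formaldehyde, and imaged by confocal high-content microscopy at 10× magnification.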

HUVECs = experiment: High-content imaging cytotoxicity in HUVECs, 24 h; format: cell-based, human; details: Homo sapiens, HUVEC, 24 h, HUVECs; for viability at 0.01 µM / activity at 0.01 µM / viability at 0.1 µM / activity at 0.1 µM / viability at 1 µM / activity at 1 µM / viability at 10 µM / activity at 10 µM / viability at 100 µM / activity at 100 µM: 0.00 µM = 100.00; for viability at 0.1 µM / activity at 0.1 µM: 0.10 µM; for minimal effective concentration: top concentration 100.00 µM
How it was run: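 HUVECs (passages 1–5) grown to monolayer over 3–5 d, then exposed 24 h at 37°C, 5% CO2; stained with Hoechst 33342, MitoTracker Orange and calcein AM and imaged at 10×. Readouts normalized to 0.5% DMSO vehicle, four-parameter logistic fit; POD at one-SD cutoff, 100μM assigned when no response.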

[2] = 24 hr, read-out: huvec.cyto.24hr
[3] = 24 hr, read-out: huvec.mito.24hr
[4] = 24 hr, read-out: huvec.mitoint.24hr
[5] = 24 hr, read-out: huvec.nma.24hr
[6] = 24 hrs, read-out: huvec.tc.24hrs

SMILES: Oc1cc(Cl)cc(-c2cccc(Cl)c2)c1 [5-OH PCB 11]
- viability at 0.01 µM ([1]; 1.5 h, read-out: cm.cam.90min): 91%
- activity at 0.01 µM ([1]; 1.5 h, read-out: cm.mii.90min): 117%
- activity at 0.01 µM ([1]; 1.5 h, read-out: cm.mito.90min): 90.7%
- viability at 0.01 µM ([1]; 1.5 h, read-out: cm.tc.90min): 91.1%
- viability at 0.1 µM ([1]; 1.5 h, read-out: cm.cam.90min): 96.6%
- activity at 0.1 µM ([1]; 1.5 h, read-out: cm.mii.90min): 96.6%
- activity at 0.1 µM ([1]; 1.5 h, read-out: cm.mito.90min): 96.4%
- viability at 0.1 µM ([1]; 1.5 h, read-out: cm.tc.90min): 96.5%
- viability at 1 µM ([1]; 1.5 h, read-out: cm.cam.90min): 99%
- activity at 1 µM ([1]; 1.5 h, read-out: cm.mii.90min): 90.6%
- activity at 1 µM ([1]; 1.5 h, read-out: cm.mito.90min): 99%
- viability at 1 µM ([1]; 1.5 h, read-out: cm.tc.90min): 99%
- viability at 10 µM ([1]; 1.5 h, read-out: cm.cam.90min): 98.4%
- activity at 10 µM ([1]; 1.5 h, read-out: cm.mii.90min): 108%
- activity at 10 µM ([1]; 1.5 h, read-out: cm.mito.90min): 98%
- viability at 10 µM ([1]; 1.5 h, read-out: cm.tc.90min): 98%
- viability at 100 µM ([1]; 1.5 h, read-out: cm.cam.90min): 0%
- activity at 100 µM ([1]; 1.5 h, read-out: cm.mii.90min): 69.7%
- activity at 100 µM ([1]; 1.5 h, read-out: cm.mito.90min): 0.0231%
- viability at 100 µM ([1]; 1.5 h, read-out: cm.tc.90min): 0.0231%
- viability at 0.01 µM ([1]; 24 h, read-out: cm.cam.24hrs): 99%
- activity at 0.01 µM ([1]; 24 h, read-out: cm.mii.24hrs): 95.3%
- activity at 0.01 µM ([1]; 24 h, read-out: cm.mito.24hrs): 97%
- viability at 0.01 µM ([1]; 24 h, read-out: cm.tc.24hrs): 99.8%
- viability at 0.1 µM ([1]; 24 h, read-out: cm.cam.24hrs): 101%
- activity at 0.1 µM ([1]; 24 h, read-out: cm.mii.24hrs): 93.9%
- activity at 0.1 µM ([1]; 24 h, read-out: cm.mito.24hrs): 100%
- viability at 0.1 µM ([1]; 24 h, read-out: cm.tc.24hrs): 101%
- viability at 1 µM ([1]; 24 h, read-out: cm.cam.24hrs): 99.8%
- activity at 1 µM ([1]; 24 h, read-out: cm.mii.24hrs): 100%
- activity at 1 µM ([1]; 24 h, read-out: cm.mito.24hrs): 97.8%
- viability at 1 µM ([1]; 24 h, read-out: cm.tc.24hrs): 99.8%
- viability at 10 µM ([1]; 24 h, read-out: cm.cam.24hrs): 98.2%
- activity at 10 µM ([1]; 24 h, read-out: cm.mii.24hrs): 81.6%
- activity at 10 µM ([1]; 24 h, read-out: cm.mito.24hrs): 98.7%
- viability at 10 µM ([1]; 24 h, read-out: cm.tc.24hrs): 97.8%
- viability at 100 µM ([1]; 24 h, read-out: cm.cam.24hrs): 0.0236%
- activity at 100 µM ([1]; 24 h, read-out: cm.mii.24hrs): 0%
- activity at 100 µM ([1]; 24 h, read-out: cm.mito.24hrs): 0%
- viability at 100 µM ([1]; 24 h, read-out: cm.tc.24hrs): 0.0229%
- minimal effective concentration ([1]; 1.5 h, read-out: cm.cam.90min POD): 16.2 µM
- minimal effective concentration ([1]; 1.5 h, read-out: cm.mii.90min POD): 34.1 µM
- minimal effective concentration ([1]; 1.5 h, read-out: cm.mito.90min POD): 13.8 µM
- minimal effective concentration ([1]; 1.5 h, read-out: cm.tc.90min POD): 14 µM
- minimal effective concentration ([1]; 24 h, read-out: cm.cam.24hrs POD): 13.8 µM
- minimal effective concentration ([1]; 24 h, read-out: cm.mii.24hrs POD): 8.43 µM
- minimal effective concentration ([1]; 24 h, read-out: cm.mito.24hrs POD): 14.6 µM
- minimal effective concentration ([1]; 24 h, read-out: cm.tc.24hrs POD): 10.7 µM
- viability at 0.01 µM (HUVECs; [2]): 94.6%
- activity at 0.01 µM (HUVECs; [3]): 93.1%
- activity at 0.01 µM (HUVECs; [4]): 89.8%
- activity at 0.01 µM (HUVECs; [5]): 98.5%
- viability at 0.1 µM (HUVECs; [2]): 87.5%
- activity at 0.1 µM (HUVECs; [3]): 86.8%
- activity at 0.1 µM (HUVECs; [4]): 107%
- activity at 0.1 µM (HUVECs; [5]): 111%
- viability at 1 µM (HUVECs; [2]): 93.9%
- activity at 1 µM (HUVECs; [3]): 93.3%
- activity at 1 µM (HUVECs; [4]): 101%
- activity at 1 µM (HUVECs; [5]): 99.7%
- viability at 10 µM (HUVECs; [2]): 35.9%
- activity at 10 µM (HUVECs; [3]): 29.1%
- activity at 10 µM (HUVECs; [4]): 17.5%
- activity at 10 µM (HUVECs; [5]): 69.5%
- viability at 100 µM (HUVECs; [2]): 24.1%
- activity at 100 µM (HUVECs; [3]): 13.2%
- activity at 100 µM (HUVECs; [4]): 12%
- activity at 100 µM (HUVECs; [5]): 77.5%
- minimal effective concentration (HUVECs; 24 hr, read-out: huvec.cyto.24hr POD): 0.95 µM
- minimal effective concentration (HUVECs; 24 hr, read-out: huvec.mito.24hr POD): 0.84 µM
- minimal effective concentration (HUVECs; 24 hr, read-out: huvec.mitoint.24hr POD): 3.3 µM
- minimal effective concentration (HUVECs; 24 hr, read-out: huvec.nma.24hr POD): 1.22 µM
- viability at 0.01 µM (HUVECs; [6]): 94.6%
- viability at 0.1 µM (HUVECs; [6]): 87.5%
- viability at 1 µM (HUVECs; [6]): 93.9%
- viability at 10 µM (HUVECs; [6]): 36%
- viability at 100 µM (HUVECs; [6]): 26.8%
- minimal effective concentration (HUVECs; 24 hrs, read-out: huvec.tc.24hrs POD): 0.95 µM
